According to patent US10760110B2, “Antibiotic testing and screening system” (priority 2017, dated 2020):
≈ marks a conversion by molar mass, not a printed value. Read-outs that look alike come from different tables or passages of the source.

Experiments:
[1] = tested on: K. pneumoniae NVT1001 strains with aminoglycoside resistance plasmids; experiment: Etest MIC of aminoglycosides, aminoglycoside-modifying enzyme or 16S rRNA methylase (Table 13); format: cell-based, Klebsiella pneumoniae
Experimental: DNA fragments of the resistance genes along with their flanking regions were amplified from clinical plasmids via PCR with specific primer pairs. The resulting PCR fragments were digested and then cloned into the plasmid pACYC177 or pACYC184. The resulting plasmids were then transformed into K. pneumoniae strain NVT1001 via electroporation. The recombinant bacteria were plated onto LB agar plates containing kanamycin (50 mg/L) or chloramphenicol (50 mg/L), and the presence of the cloned gene was confirmed via PCR and DNA sequencing.
(§1) The MICs of antibiotics were determined using the Etest (Biodisk AB, Sweden) according to the manufacturer's instructions. The MICs from the Etest, which fall between standard two-fold dilutions, were rounded up to the next highest two-fold value. The MICs of ceftazidime and cefotaxime against K. pneumoniae NVT1001 harbouring the pACYC177 plasmid with blaOXA-48 were further determined using a broth microdilution test according to the recommendations of the CLSI,^25 and the results were interpreted according to the breakpoints established by the CLSI in 2017.^25 Meanwhile, due to the lack of CLSI breakpoints in 2016 and 2017, the results for cephalothin were interpreted according to the breakpoints established by the CLSI in 2015,^26 and the results for moxifloxacin were interpreted according to the breakpoints established by the EUCAST in 2017.^27

[2] = tested on: A. baumannii KW1 strains with aminoglycoside resistance plasmids; experiment: Etest MIC of aminoglycosides, aminoglycoside-modifying enzyme or 16S rRNA methylase (Table 19); format: cell-based, Acinetobacter baumannii
Experimental: (§2) DNA fragments of the resistance genes along with their flanking regions were amplified from clinical plasmids via PCR with specific primer pairs. The resulting PCR fragments were digested and then cloned into the plasmid pYMAb5 or pYMAb5Tc. The resulting plasmids were then transformed into A. baumannii KW1 via electroporation.
as §1

[3] = tested on: A. baumannii KW1 strains with β-lactamase plasmids; experiment: Etest MIC of β-lactams, extended-spectrum β-lactamase, AmpC β-lactamase or carbapenemase (Table 18); format: cell-based, Acinetobacter baumannii
Experimental: as §2, §1

[4] = tested on: K. pneumoniae NVT1001 and its ΔompK35/36 and/or ΔramR mutants; experiment: Etest MIC, OmpK35/36 loss and AcrAB-TolC overexpression (ΔramR) strains (Table 6); format: cell-based, Klebsiella pneumoniae; conditions: Klebsiella pneumoniae
Method in brief: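 First, Etest determined each antibiotic's MIC, and intermediate results were adjusted upward to the next doubling dilution. Next, ceftazidime and cefotaxime were titrated in broth according to CLSI recommendations. Finally, results were interpreted with CLSI 2017 breakpoints, substituting CLSI 2015 for cephalothin and EUCAST 2017 for moxifloxacin.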

[5] = NVT1001, no supplemental plasmid
[6] = NVT1001 with AAC(3)-IId on pACYC184
[7] = NVT1001 with AAC(3)-IVa on pACYC184
[8] = NVT1001 with AAC(6′)-Ib-cr on pACYC184
[9] = NVT1001 with ANT(2″)-Ia on pACYC184
[10] = NVT1001 with ANT(3″)-Ia on pACYC184
[11] = NVT1001 with APH(3′)-IIa on pACYC184
[12] = NVT1001 with APH(3′)-Ia on pACYC184
[13] = NVT1001 with StrA-StrB on pACYC184
[14] = KW1 with AAC(3)-IIa on pYMAb5Tc
[15] = KW1 with ANT(2”)-Ia on pYMAb5Tc
[16] = KW1 with ANT(3”)-Ia on pYMAb5Tc
[17] = KW1 with APH(3')-Ia on pYMAb5Tc
[18] = KW1 with APH(3')-VIa on pYMAb5Tc
[19] = KW1 with shuttle vector pYMAb5Tc

Row | SMILES | MIC [1, 5] | MIC [1, 6] | MIC [1, 7] | MIC [1, 8] | MIC [1, 9] | MIC [1, 10] | MIC [1, 11] | MIC [1, 12] | MIC ([1]; NVT1001 with ArmA on pACYC184) | MIC ([1]; NVT1001 with RmtB on pACYC184) | MIC [1, 13] | MIC ([2]; KW1, no supplemental plasmid) | MIC [2, 14] | MIC [2, 15] | MIC [2, 16] | MIC [2, 17] | MIC [2, 18] | MIC ([2]; KW1 with ArmA on pYMAb5Tc) | MIC [2, 19] | MIC ([3]; KW1, no supplemental plasmid) | also measured
1 | NCC[C@H](O)C(=O)N[C@@H]1C[C@H](N)[C@@H](O[C@H]2O[C@H](CN)[C@@H](O)[C@H](O)[C@H]2O)[C@H](O)[C@H]1O[C@H]1O[C@H](CO)[C@@H](O)[C@H](N)[C@H]1O [AMK] | 2 µg/mL | 2 µg/mL | 2 µg/mL | 8 µg/mL | 2 µg/mL | 2 µg/mL | 2 µg/mL | 2 µg/mL | >256 µg/mL | >256 µg/mL | 2 µg/mL | 2 µg/mL | 2 µg/mL | 2 µg/mL | 2 µg/mL | 2 µg/mL | 2 µg/mL | >256 µg/mL | 2 µg/mL |  | 
2 | C[C@@H](O)[C@H]1C(=O)N2C(C(=O)O)=C(S[C@@H]3CN[C@H](C(=O)Nc4cccc(C(=O)O)c4)C3)[C@H](C)[C@H]12 [ETP] |  |  |  |  |  |  |  |  |  |  |  |  |  |  |  |  |  |  |  | 3 µg/mL | MIC ([3]; KW1 with ADC-30 on pYMAb5): >32 µg/mL; MIC ([3]; KW1 with CTX-M-15 on pYMAb5): 12 µg/mL; MIC ([3]; KW1 with IMP-1 on pYMAb5): >32 µg/mL; MIC ([3]; KW1 with NDM-1 on pYMAb5): >32 µg/mL; MIC ([3]; KW1 with OXA-23 on pYMAb5): >32 µg/mL; MIC ([3]; KW1 with OXA-58 on pYMAb5): >32 µg/mL; MIC ([3]; KW1 with OXA-66 on pYMAb5): >32 µg/mL; MIC ([3]; KW1 with OXA-72 on pYMAb5): >32 µg/mL; MIC ([3]; KW1 with VEB-3 on pYMAb5): 3 µg/mL; MIC ([3]; KW1 with VIM-1 on pYMAb5): >32 µg/mL; MIC ([3]; KW1 with shuttle vector pYMAb5): 3 µg/mL
3 | NC[C@@H]1O[C@@H](O[C@H]2[C@H](O)[C@@H](O[C@H]3O[C@H](CO)[C@@H](O)[C@H](N)[C@H]3O)[C@H](N)C[C@@H]2N)[C@@H](O)[C@H](O)[C@H]1O [KAN] | 2 µg/mL | 4 µg/mL | 8 µg/mL | 32 µg/mL | >256 µg/mL | 2 µg/mL | >256 µg/mL | >256 µg/mL | >256 µg/mL | >256 µg/mL | 2 µg/mL | 2 µg/mL | 2 µg/mL | 4 µg/mL | 2 µg/mL | 16 µg/mL | 16 µg/mL | >256 µg/mL | 2 µg/mL |  | 
4 | C[C@@H](O)[C@H]1C(=O)N2C(C(=O)O)=C(S[C@@H]3CN[C@H](C(=O)N(C)C)C3)[C@H](C)[C@H]12 [MP] |  |  |  |  |  |  |  |  |  |  |  |  |  |  |  |  |  |  |  | 0.5 µg/mL | MIC ([3]; KW1 with ADC-30 on pYMAb5): 3 µg/mL; MIC ([3]; KW1 with CTX-M-15 on pYMAb5): 2 µg/mL; MIC ([3]; KW1 with IMP-1 on pYMAb5): 12 µg/mL; MIC ([3]; KW1 with NDM-1 on pYMAb5): >32 µg/mL; MIC ([3]; KW1 with OXA-23 on pYMAb5): >32 µg/mL; MIC ([3]; KW1 with OXA-58 on pYMAb5): 6 µg/mL; MIC ([3]; KW1 with OXA-66 on pYMAb5): 8 µg/mL; MIC ([3]; KW1 with OXA-72 on pYMAb5): >32 µg/mL; MIC ([3]; KW1 with VEB-3 on pYMAb5): 0.5 µg/mL; MIC ([3]; KW1 with VIM-1 on pYMAb5): >32 µg/mL; MIC ([3]; KW1 with shuttle vector pYMAb5): 0.5 µg/mL
5 | CCN[C@@H]1C[C@H](N)[C@@H](O[C@H]2OC(CN)=CC[C@H]2N)[C@H](O)[C@H]1O[C@H]1OC[C@](C)(O)[C@H](NC)[C@H]1O [NET] | 0.5 µg/mL | 4 µg/mL | 64 µg/mL | 8 µg/mL | 1 µg/mL | 0.5 µg/mL | 0.5 µg/mL | 0.5 µg/mL | >256 µg/mL | >256 µg/mL | 0.5 µg/mL | 1.5 µg/mL | 1.5 µg/mL | 1.5 µg/mL | 1.5 µg/mL | 1.5 µg/mL | 1.5 µg/mL | >256 µg/mL | 1.5 µg/mL |  | 
6 | CCN[C@@H]1C[C@H](N)[C@@H](O[C@H]2OC(CN)=CC[C@H]2N)[C@H](O)[C@H]1O[C@H]1OC[C@](C)(O)[C@H](NC)[C@H]1O [Netilmicin] |  |  |  |  |  |  |  |  |  |  |  |  |  |  |  |  |  |  |  |  | MIC ([4]; WT, NVT1001, read-out: MIC): 0.5 µg/mL (≈ 1.05 µM); MIC ([4]; Δ35, ΔompK35 mutant): 0.5 µg/mL (≈ 1.05 µM); MIC ([4]; Δ35/36, ΔompK35/36 mutant): 0.5 µg/mL (≈ 1.05 µM); MIC ([4]; Δ36, ΔompK36 mutant): 0.5 µg/mL (≈ 1.05 µM); MIC ([4]; ΔramR mutant): 0.5 µg/mL (≈ 1.05 µM); MIC ([4]; ΔramRΔ35, ΔramRΔompK35 mutant): 0.25 µg/mL (≈ 0.526 µM); MIC ([4]; ΔramRΔ35/36, ΔramRΔompK35/36 mutant): 0.5 µg/mL (≈ 1.05 µM); MIC ([4]; ΔramRΔ36, ΔramRΔompK36 mutant): 0.5 µg/mL (≈ 1.05 µM); effects on the MIC ([2]; production of aminoglycoside-modifying enzymes): no increase effects
7 | CCN1CCN(C(=O)N[C@@H](C(=O)N[C@@H]2C(=O)N3[C@@H]2SC(C)(C)[C@@H]3C(=O)O)c2ccccc2)C(=O)C1=O [PP] |  |  |  |  |  |  |  |  |  |  |  |  |  |  |  |  |  |  |  | 12 µg/mL | MIC ([3]; KW1 with ADC-30 on pYMAb5): >256 µg/mL; MIC ([3]; KW1 with CTX-M-15 on pYMAb5): >256 µg/mL; MIC ([3]; KW1 with IMP-1 on pYMAb5): 16 µg/mL; MIC ([3]; KW1 with NDM-1 on pYMAb5): >256 µg/mL; MIC ([3]; KW1 with OXA-23 on pYMAb5): >256 µg/mL; MIC ([3]; KW1 with OXA-58 on pYMAb5): 128 µg/mL; MIC ([3]; KW1 with OXA-66 on pYMAb5): 64 µg/mL; MIC ([3]; KW1 with OXA-72 on pYMAb5): >256 µg/mL; MIC ([3]; KW1 with VEB-3 on pYMAb5): 12 µg/mL; MIC ([3]; KW1 with VIM-1 on pYMAb5): >256 µg/mL; MIC ([3]; KW1 with shuttle vector pYMAb5): 12 µg/mL
8 | CN[C@@H]1[C@H](O)[C@H](NC)[C@H]2O[C@@]3(O)C(=O)C[C@@H](C)O[C@H]3O[C@@H]2[C@H]1O [SPT] | 16 µg/mL | 16 µg/mL | 16 µg/mL | 16 µg/mL | 16 µg/mL | >1024 µg/mL | 16 µg/mL | 16 µg/mL | 16 µg/mL | 16 µg/mL | 16 µg/mL | 24 µg/mL | 24 µg/mL | 24 µg/mL | 192 µg/mL | 24 µg/mL | 24 µg/mL | 24 µg/mL | 24 µg/mL |  | 
